These results are taken from ChEMBL document CHEMBL1121673, “Diuretic agents related to indapamide. 1. Synthesis and activity of 1-substituted 2-(4-chloro-3-sulfamoylbenzamido)isoindolines” (1981).

Structures are written as SMILES.

Common to all, as to type: functional
The test system of assay [1] is Rattus norvegicus. The experiment in a line: Amount of potassium ions excreted during 4 hr after oral administration of 5 mg/kg of the test agent (protocol B) on 5 male and female rats.
Assay [2] deals with Rattus norvegicus. The experiment in a line: Amount of sodium ions excreted during 18 hours after single administration of 5 mg/kg of the test agent (protocol A-1) on 6 rats.
The test system of assay [3] is Rattus norvegicus. Description: Total volume of urine excreted during 18 hours after single administration of 5 mg/kg of the test agent (protocol A-1) on 6 rats.
Assay [4] relates to Rattus norvegicus. Description: Amount of sodium ions excreted during 4 hr after oral administration of 5 mg/kg of the test agent (protocol B) on 5 male and female rats.
A short description of assay [5]: Ratio of amount of Na+ excreted to amount of K+ excreted in urine of rat of protocol A-2 test.
The subject of assay [6] is Rattus norvegicus. The experiment in a line: Total volume of urine excreted during 4 hr after oral administration of 5 mg/kg of the test agent (protocol B) on 5 male and female rats.
A short description of assay [7]: Ratio of amount of Na+ excreted to amount of K+ excreted in urine of rat of protocol A-1 test.
For assay [8], the system named is Rattus norvegicus. Description: Total volume of urine excreted during 18 hours after single administration of 5 mg/kg of the test agent (protocol A-2) on 11 rats.
Assay [9] deals with Rattus norvegicus. Description: Amount of potassium ions excreted during 18 hours after single administration of 5 mg/kg of the test agent (protocol A-1) on 6 rats.
In assay [10] the test system is Rattus norvegicus. The experiment in a line: Amount of sodium ions excreted during 18 hours after single administration of 5 mg/kg of the test agent (protocol A-2) on 11 rats.
Assay [11] can be described thus: Ratio of amount of Na+ excreted to amount of K+ excreted in urine of water-loaded rats.
Assay [12] concerns Rattus norvegicus. Description: Amount of potassium ions excreted during 18 hours after single administration of 5 mg/kg of the test agent (protocol A-2) on 11 rats.
In assay [13] the test system is Rattus norvegicus. Description: Total volume of urine excreted during 18 hours after single administration of 5 mg/kg of the test agent (protocol A-2) on 6 rats.
Assay [14] has as its system Rattus norvegicus. Description: Amount of sodium ions excreted during 18 hours after single administration of 5 mg/kg of the test agent (protocol A-2) on 6 rats.
The subject of assay [15] is Rattus norvegicus. Description: Amount of potassium ions excreted during 18 hours after single administration of 5 mg/kg of the test agent (protocol A-2) on 6 rats.

On to `NS(=O)(=O)c1cc(C(=O)NN2Cc3ccccc3C2C(=O)O)ccc1Cl` (stereo not drawn), for which the “Urine K+” value with Rattus norvegicus [1] came to 0.1305 m equiv; in the assay on Rattus norvegicus [9] it was 1.569 m equiv; with Rattus norvegicus [12], 2.075 m equiv. In addition, the “Urine Na+” value in the assay with Rattus norvegicus [2] was 1.59 m equiv; in the assay with Rattus norvegicus [4], 0.109 m equiv; in the assay with Rattus norvegicus [10], 2.199 m equiv. The Urine in the assay with Rattus norvegicus [3] came to 9.36 mL; in the assay on Rattus norvegicus [6] it was 87.1 mL; with Rattus norvegicus [8], 9.36 mL. Further, the Ratio in [5] worked out at 1.0809; in [7] it was 0.984; in [11], 0.855.

Take `NS(=O)(=O)c1cc(C(=O)NN2Cc3ccccc3C2CO)ccc1Cl` (stereo not drawn): the figures for the “Urine K+” value with Rattus norvegicus [1], in the assay on Rattus norvegicus [9] and in the assay with Rattus norvegicus [12] were 0.1657 m equiv, 1.486 m equiv and 1.512 m equiv, respectively. Besides, the “Urine Na+” value in the assay with Rattus norvegicus [2] is reported as 1.622 m equiv; in the assay with Rattus norvegicus [4] it was 0.2629 m equiv; in the assay on Rattus norvegicus [10], 1.414 m equiv. Moreover, the figures for the Urine with Rattus norvegicus [3], in the assay on Rattus norvegicus [6] and in the assay on Rattus norvegicus [8] were 11.17 mL, 106 mL and 11.45 mL, respectively. Also, the values for the Ratio in [5], in assay [7] and in assay [11] were 0.943, 1.084 and 1.638, respectively.

For `CC1Cc2ccccc2N1NC(=O)c1ccc(Cl)c(S(N)(=O)=O)c1` (stereo not drawn) [INDAPAMIDE], the Urine with Rattus norvegicus [13] is 16.67 mL; with Rattus norvegicus [3], 12.83 mL; with Rattus norvegicus [6] it was 130.6 mL. Moreover, the “Urine K+” value with Rattus norvegicus [1] is reported as 0.2686 m equiv; in the assay with Rattus norvegicus [9], 2.198 m equiv; in the assay on Rattus norvegicus [15] it was 2.78 m equiv. Also, the “Urine Na+” value in the assay with Rattus norvegicus [2] was 2.563 m equiv; with Rattus norvegicus [4], 0.705 m equiv; in the assay on Rattus norvegicus [14], 2.947 m equiv. Further, the Ratio in assay [5] was 1.0526; in assay [7] it was 1.143; in assay [11], 2.738.

On to `CC1c2ccccc2CN1NC(=O)c1ccc(Cl)c(S(N)(=O)=O)c1` (stereo not drawn) [ZIDAPAMIDE], for which the Urine in the assay on Rattus norvegicus [13] turned out to be 16.17 mL; with Rattus norvegicus [3], 11.67 mL; with Rattus norvegicus [6], 127 mL. Moreover, the figures for the “Urine K+” value in the assay with Rattus norvegicus [1], in the assay on Rattus norvegicus [9] and in the assay on Rattus norvegicus [15] were 0.2398 m equiv, 1.976 m equiv and 2.56 m equiv, respectively. The entries for the “Urine Na+” value in the assay on Rattus norvegicus [2], in the assay with Rattus norvegicus [4] and with Rattus norvegicus [14] were 2.193 m equiv, 0.6927 m equiv and 3.058 m equiv, respectively. Also, the Ratio is given as 1.2204 in assay [5], 1.128 in assay [7] and 3.11 in assay [11].
